# Assay results taken from ChEMBL document CHEMBL1151400, “Plant antiviral agents. III. Isolation of alkaloids from Clivia miniata Regel (Amaryllidaceae)” (J Nat Prod, 1982).
# Active and inactive are the calls of the source. No cut-off for these calls is given here.
# Tests used:
# [1] = system: Enterovirus C; assay: Antiviral activity against Poliovirus infected african green monkey Vero cells assessed as reduction in virus-induced cytopathic effect at 100 ug/mL after 96 hrs measured as viral titer per ml by microscopy; assay type: functional
# [2] = system: Simplexvirus; assay: Antiviral activity against Herpes simplex virus infected african green monkey Vero cells assessed as reduction in virus-induced cytopathic effect at 100 ug/mL after 96 hrs measured as viral titer per ml by microscopy; assay type: functional
# [3] = system: Measles morbillivirus; assay: Antiviral activity against Measles virus infected african green monkey Vero cells assessed as reduction in virus-induced cytopathic effect at 100 ug/mL after 96 hrs measured as viral titer per ml by microscopy; assay type: functional
# [4] = system: Semliki Forest virus; assay: Antiviral activity against Semliki forest virus infected african green monkey Vero cells assessed as reduction in virus-induced cytopathic effect at 100 ug/mL after 96 hrs measured as viral titer per ml by microscopy; assay type: functional
# [5] = system: Semliki Forest virus; assay: Antiviral activity against Semliki forest virus infected african green monkey Vero cells assessed as reduction in virus-induced cytopathic effect at 50 ug/mL after 96 hrs measured as viral titer per ml by microscopy; assay type: functional
# [6] = system: Simplexvirus; assay: Antiviral activity against Herpes simplex virus infected african green monkey Vero cells assessed as reduction virus-induced cytopathic effect at 50 ug/mL after 96 hrs measured as viral titer per ml by microscopy; assay type: functional
# [7] = system: Enterovirus C; assay: Antiviral activity against Poliovirus infected african green monkey Vero cells assessed as reduction in virus-induced cytopathic effect at 50 ug/mL after 96 hrs measured as viral titer per ml by microscopy; assay type: functional
# [8] = system: Measles morbillivirus; assay: Antiviral activity against Measles virus infected african green monkey Vero cells assessed as reduction in virus-induced cytopathic effect at 50 ug/mL after 96 hrs measured as viral titer per ml by microscopy; assay type: functional
# [9] = system: Measles morbillivirus; assay: Antiviral activity against Measles virus infected african green monkey Vero cells assessed as reduction in virus-induced cytopathic effect at 20 ug/mL after 96 hrs measured as viral titer per ml by microscopy; assay type: functional
# [10] = system: Simplexvirus; assay: Antiviral activity against Herpes simplex virus infected african green monkey Vero cells assessed as reduction in virus-induced cytopathic effect at 2.5 ug/mL after 96 hrs measured as viral titer per ml by microscopy; assay type: functional
# [11] = system: Measles morbillivirus; assay: Antiviral activity against Measles virus infected african green monkey Vero cells assessed as reduction in virus-induced cytopathic effect at 5 ug/mL after 96 hrs measured as viral titer per ml by microscopy; assay type: functional
# [12] = system: Enterovirus C; assay: Antiviral activity against Poliovirus infected african green monkey Vero cells assessed as reduction in virus-induced cytopathic effect at 5 ug/mL after 96 hrs measured as viral titer per ml by microscopy; assay type: functional
# [13] = system: Semliki Forest virus; assay: Antiviral activity against Semliki forest virus infected african green monkey Vero cells assessed as reduction in virus-induced cytopathic effect at 5 ug/mL after 96 hrs measured as viral titer per ml by microscopy; assay type: functional
# [14] = system: Enterovirus C; assay: Antiviral activity against Poliovirus infected african green monkey Vero cells assessed as reduction in virus-induced cytopathic effect at 10 ug/mL after 96 hrs measured as viral titer per ml by microscopy; assay type: functional
# [15] = system: Simplexvirus; assay: Antiviral activity against Herpes simplex virus infected african green monkey Vero cells assessed as reduction in virus-induced cytopathic effect at 10 ug/mL after 96 hrs measured as viral titer per ml by microscopy; assay type: functional
# [16] = system: Simplexvirus; assay: Antiviral activity against Herpes simplex virus infected african green monkey Vero cells assessed as reduction in virus-induced cytopathic effect at 5 ug/mL after 96 hrs measured as viral titer per ml by microscopy; assay type: functional
# [17] = system: Enterovirus C; assay: Antiviral activity against Poliovirus infected african green monkey Vero cells assessed as reduction in virus-induced cytopathic effect at 20 ug/mL after 96 hrs measured as viral titer per ml by microscopy; assay type: functional
# [18] = system: Semliki Forest virus; assay: Antiviral activity against Semliki forest virus infected african green monkey Vero cells assessed as reduction in virus-induced cytopathic effect at 2.5 ug/mL after 96 hrs measured as viral titer per ml by microscopy; assay type: functional
# [19] = system: Measles morbillivirus; assay: Antiviral activity against Measles virus infected african green monkey Vero cells assessed as reduction in virus-induced cytopathic effect at 10 ug/mL after 96 hrs measured as viral titer per ml by microscopy; assay type: functional
# [20] = system: Simplexvirus; assay: Antiviral activity against Herpes simplex virus infected african green monkey Vero cells assessed as reduction in virus-induced cytopathic effect at 20 ug/mL after 96 hrs measured as viral titer per ml by microscopy; assay type: functional
# [21] = system: Measles morbillivirus; assay: Antiviral activity against Measles virus infected african green monkey Vero cells assessed as reduction in virus-induced cytopathic effect at 2.5 ug/mL after 96 hrs measured as viral titer per ml by microscopy; assay type: functional
# [22] = system: Semliki Forest virus; assay: Antiviral activity against Semliki forest virus infected african green monkey Vero cells assessed as reduction in virus-induced cytopathic effect at 10 ug/mL after 96 hrs measured as viral titer per ml by microscopy; assay type: functional
# [23] = system: Semliki Forest virus; assay: Antiviral activity against Semliki forest virus infected african green monkey Vero cells assessed as reduction in virus-induced cytopathic effect at 20 ug/mL after 96 hrs measured as viral titer per ml by microscopy; assay type: functional
# [24] = system: Enterovirus C; assay: Antiviral activity against Poliovirus infected african green monkey Vero cells assessed as reduction in virus-induced cytopathic effect at 2.5 ug/mL after 96 hrs measured as viral titer per ml by microscopy; assay type: functional
# [25] = system: Enterovirus C; assay: Antiviral activity against Poliovirus infected african green monkey Vero cells assessed as reduction of virus-induced cytopathic effect at 1 ug/mL after 96 hrs by microscopy; assay type: functional, organism-based
# [26] = system: Vero; assay: Cytotoxicity against Herpes simplex virus infected african green monkey Vero cells assessed as monolayer destruction at 50 ug/mL; assay type: cell-based; conditions: chlorocebus sabaeus
# [27] = system: Vero; assay: Cytotoxicity against african green monkey Vero cells assessed as monolayer destruction at 10 ug/mL after 24 hrs by trypan blue exclusion test; assay type: cell-based; conditions: chlorocebus sabaeus
# [28] = system: Vero; assay: Cytotoxicity against Poliovirus infected african green monkey Vero cells assessed as monolayer destruction at 100 ug/mL; assay type: cell-based; conditions: chlorocebus sabaeus
# [29] = system: Vero; assay: Cytotoxicity against Semliki forest virus infected african green monkey Vero cells assessed as monolayer destruction at 100 ug/mL; assay type: cell-based; conditions: chlorocebus sabaeus
# [30] = Therapeutic index, ratio of cytotoxicity against african green monkey Vero cells to antiviral activity against Herpes simplex virus; assay type: cell-based; conditions: read-out: TI
# [31] = system: Enterovirus C; assay: Antiviral activity against Poliovirus infected african green monkey Vero cells assessed as reduction of virus-induced cytopathic effect at 1 ug/mL after 4 days; assay type: functional, organism-based
# [32] = system: Vero; assay: Cytotoxicity against Measles virus infected african green monkey Vero cells assessed as monolayer destruction at 100 ug/mL; assay type: cell-based; conditions: chlorocebus sabaeus
# [33] = Therapeutic index, ratio of cytotoxicity against african green monkey Vero cells to antiviral activity against Semliki forest virus; assay type: cell-based; conditions: read-out: TI
# [34] = system: Vero; assay: Cytotoxicity against african green monkey Vero cells assessed as monolayer destruction at 25 ug/mL after 24 hrs by trypan blue exclusion test; assay type: cell-based; conditions: chlorocebus sabaeus
# [35] = system: Enterovirus C; assay: Antiviral activity against Poliovirus infected african green monkey Vero cells assessed as reduction of virus-induced cytopathic effect at < 1 ug/mL after 4 days; assay type: functional, organism-based
# [36] = system: Vero; assay: Cytotoxicity against Poliovirus infected african green monkey Vero cells assessed as monolayer destruction at > 25 ug/mL; assay type: cell-based; conditions: chlorocebus sabaeus
# [37] = system: Vero; assay: Cytotoxicity against african green monkey Vero cells assessed as monolayer destruction at 50 ug/mL after 24 hrs by trypan blue exclusion test; assay type: cell-based; conditions: chlorocebus sabaeus
# [38] = Therapeutic index, ratio of cytotoxicity against african green monkey Vero cells to antiviral activity against Poliovirus; assay type: cell-based; conditions: read-out: TI
# [39] = system: Vero; assay: Cytotoxicity against Poliovirus infected african green monkey Vero cells assessed as monolayer destruction at 50 ug/mL; assay type: cell-based; conditions: chlorocebus sabaeus
# [40] = system: Vero; assay: Cytotoxicity against Measles virus infected african green monkey Vero cells assessed as monolayer destruction at 50 ug/mL; assay type: cell-based; conditions: chlorocebus sabaeus
# [41] = system: Vero; assay: Cytotoxicity against Semliki forest virus infected african green monkey Vero cells assessed as monolayer destruction at 50 ug/mL; assay type: cell-based; conditions: chlorocebus sabaeus
# [42] = system: Vero; assay: Effect on african green monkey Vero cell growth assessed as doubling of cell generation at 1 ug/mL after 24 hrs by trypan blue exclusion test; assay type: cell-based; conditions: chlorocebus sabaeus
# [43] = system: Vero; assay: Cytotoxicity against Herpes simplex virus infected african green monkey Vero cells assessed as monolayer destruction at 100 ug/mL; assay type: cell-based; conditions: chlorocebus sabaeus
# [44] = Therapeutic index, ratio of cytotoxicity against african green monkey Vero cells to antiviral activity against Measles virus; assay type: cell-based; conditions: read-out: TI
structure (smiles),measurement,setting,value
CCOC(=O)c1cc(C(=O)O[C@H]2C[C@H]3CCN(C)[C@H]3[C@@H]3c4cc5c(cc4C(=O)O[C@H]32)OCO5)c(C)nc1C [CLIVIAMARTINE],pTCD50,[1],10
same,pTCD50,[2],10
same,pTCD50,[3],1
same,pTCD50,[4],10
same,pTCD50,[5],1
same,pTCD50,[6],10
same,pTCD50,[7],1
same,pTCD50,[8],1
Cc1nc(C)c(C(=O)O[C@H]2C[C@H]3CCN(C)[C@H]3[C@@H]3c4cc5c(cc4C(=O)O[C@H]32)OCO5)cc1C(=O)O[C@H]1C[C@H]2CCN(C)[C@H]2[C@@H]2c3cc4c(cc3C(=O)O[C@H]21)OCO4 [CLIVIMINE],pTCD50,[1],10
same,pTCD50,[9],1
same,pTCD50,[10],1
same,pTCD50,[11],1
same,pTCD50,[12],1
same,pTCD50,[13],1
same,pTCD50,[14],1
same,pTCD50,[2],1
same,pTCD50,[15],1
same,pTCD50,[3],1
same,pTCD50,[4],10
same,pTCD50,[16],1
same,pTCD50,[5],1
same,pTCD50,[17],1
same,pTCD50,[18],1
same,pTCD50,[19],1
same,pTCD50,[6],1
same,pTCD50,[20],1
same,pTCD50,[21],1
same,pTCD50,[7],1
same,pTCD50,[22],1
same,pTCD50,[23],1
same,pTCD50,[8],1
same,pTCD50,[24],1
CN1CC[C@@H]2C[C@H](O)[C@@H]3OC(=O)c4cc5c(cc4[C@H]3[C@@H]21)OCO5 [CLIVONINE],pTCD50,[1],10
same,pTCD50,[2],10
same,pTCD50,[3],1
same,pTCD50,[4],10
same,pTCD50,[5],1
same,pTCD50,[6],1
same,pTCD50,[7],1
same,pTCD50,[8],1
O[C@H]1[C@H]2c3cc4c(cc3CN3CCC(=C[C@@H]1O)[C@H]23)OCO4 [LYCORINE],Activity,[25],Active
same,pTCD50,[9],1000
same,Activity,[26],Toxic
same,Activity,[27],Non-toxic
same,pTCD50,[10],100
same,Activity,[28],Toxic
same,Activity,[29],Toxic
same,pTCD50,[11],100
same,selectivity ratio,[30],10
same,pTCD50,[12],100
same,pTCD50,[13],1000
same,pTCD50,[14],1000
same,pTCD50,[15],1000
same,pTCD50,[16],1000
same,pTCD50,[17],10000
same,Activity,[31],Active
same,Activity,[32],Toxic
same,pTCD50,[18],100
same,selectivity ratio,[33],10
same,pTCD50,[19],1000
same,Activity,[34],Non-toxic
same,Activity,[35],inactive
same,pTCD50,[20],1000
same,pTCD50,[21],100
same,Activity,[36],Toxic
same,pTCD50,[22],1000
same,Activity,[37],Toxic
same,selectivity ratio,[38],10
same,Activity,[39],Toxic
same,Activity,[40],Toxic
same,pTCD50,[23],10000
same,Activity,[41],Toxic
same,Activity,[42],Active
same,Activity,[43],Toxic
same,selectivity ratio,[44],10
same,pTCD50,[24],100
